Results from PubChem BioAssay AID220 (DTP/NCI, 2004).
Several values for one entry are separate records, joined by “and”; a condition that tells them apart may be missing. Equal entries are not always repeated. Records with an inconclusive call do not appear.

System: CD8F1 mice, subcutaneous mammary adenocarcinoma, T/C%
Assay: NCI In Vivo Anticancer Drug Screen. Data for tumor model Mammary Adenocarcinoma CD8F1 (subcutaneous) in CD8F1
Settings: higher = larger tumour
Method in brief: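 Compound-treated versus vehicle-treated mice with transplantable tumors; survival or tumor size compared as T/C.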

[1] = endpoint: median tumor weight (est.), dose: 25.0 mg/kg/injection, schedule: Q07DX005 (ip), vehicle: Klucel (hydroxypropylcellulose) (HPC)
[2] = endpoint: median tumor weight (est.), dose: 100.0 mg/kg/injection, schedule: Q07DX005 (ip), vehicle: Klucel (hydroxypropylcellulose) (HPC)
[3] = endpoint: median tumor weight (est.), dose: 200.0 mg/kg/injection, schedule: Q07DX005 (ip), vehicle: Klucel (hydroxypropylcellulose) (HPC)
[4] = endpoint: median tumor weight change, dose: 62.5 mg/kg/injection, schedule: Q01DX001 (ip), vehicle: Klucel (hydroxypropylcellulose) (HPC)
[5] = endpoint: median tumor weight (est.), dose: 12.5 mg/kg/injection, schedule: Q07DX005 (ip), vehicle: saline
[6] = endpoint: median tumor weight (est.), dose: 25.0 mg/kg/injection, schedule: Q07DX005 (ip), vehicle: saline
[7] = endpoint: median tumor weight (est.), dose: 50.0 mg/kg/injection, schedule: Q07DX005 (ip), vehicle: saline
[8] = endpoint: median tumor weight change, dose: 125.0 mg/kg/injection, schedule: Q01DX001 (ip), vehicle: saline with Tween-80
[9] = endpoint: median tumor weight change, dose: 250.0 mg/kg/injection, schedule: Q01DX001 (ip), vehicle: saline with Tween-80
[10] = endpoint: median tumor weight change, dose: 500.0 mg/kg/injection, schedule: Q01DX001 (ip), vehicle: saline with Tween-80
[11] = endpoint: median tumor weight change, dose: 62.5 mg/kg/injection, schedule: Q01DX001 (ip), vehicle: saline with Tween-80

For `CNc1nc(NC)nc(NC)n1`, the T/C (endpoint: median tumor weight (est.), dose: 12.5 mg/kg/injection, schedule: Q07DX005 (ip), vehicle: Klucel (hydroxypropylcellulose) (HPC)) was 83 % of control, the T/C (endpoint: median tumor weight (est.), dose: 12.5 mg/kg/injection, schedule: Q07DX006 (ip), vehicle: Klucel (hydroxypropylcellulose) (HPC)) was 86 % of control and the T/C [1] was 163 % of control. For the same molecule, the T/C (endpoint: median tumor weight (est.), dose: 25.0 mg/kg/injection, schedule: Q07DX006 (ip), vehicle: Klucel (hydroxypropylcellulose) (HPC)) was 72 % of control, the T/C (endpoint: median tumor weight (est.), dose: 50.0 mg/kg/injection, schedule: Q07DX005 (ip), vehicle: Klucel (hydroxypropylcellulose) (HPC)) was 107 % of control and the T/C (endpoint: median tumor weight (est.), dose: 50.0 mg/kg/injection, schedule: Q07DX006 (ip), vehicle: Klucel (hydroxypropylcellulose) (HPC)) was 203 % of control. The T/C [2] was 93 % of control, the T/C (endpoint: median tumor weight (est.), dose: 100.0 mg/kg/injection, schedule: Q07DX006 (ip), vehicle: Klucel (hydroxypropylcellulose) (HPC)) was 294 % of control and the T/C [3] was 174 % of control. The T/C (endpoint: median tumor weight (est.), dose: 200.0 mg/kg/injection, schedule: Q07DX006 (ip), vehicle: Klucel (hydroxypropylcellulose) (HPC)) was 117 % of control and the T/C (endpoint: median tumor weight (est.), dose: 400.0 mg/kg/injection, schedule: Q07DX005 (ip), vehicle: Klucel (hydroxypropylcellulose) (HPC)) was 65 % of control.
For `C[C@H](N)C(=O)N[C@@H]1[C@H]2C(=C(O)C[C@@H](O)[C@@H]2O)C(=O)O[C@]1(C)C(Cl)Cl`, the T/C (endpoint: median tumor weight change, dose: 1.87 mg/kg/injection, schedule: Q01DX001 (ip), vehicle: Klucel (hydroxypropylcellulose) (HPC)) was 101 % of control and the T/C (endpoint: median tumor weight change, dose: 3.75 mg/kg/injection, schedule: Q01DX001 (ip), vehicle: Klucel (hydroxypropylcellulose) (HPC)) was 101 % of control.
In the case of `CC[C@]1(O)C[C@H](OC2CC(N(C)C)C(OC3CC(O)C(O)C(C)O3)C(C)O2)c2c(cc3c(c2O)C(=O)c2c(O)ccc(O)c2C3=O)[C@H]1C(=O)OC` (stereo not given in full), the T/C (endpoint: median tumor weight (est.), dose: 0.5 mg/kg/injection, schedule: Q07DX005 (ip), vehicle: Klucel (hydroxypropylcellulose) (HPC)) is reported as 170 % of control, the T/C (endpoint: median tumor weight (est.), dose: 1.0 mg/kg/injection, schedule: Q07DX005 (ip), vehicle: Klucel (hydroxypropylcellulose) (HPC)) is reported as 204 % of control and the T/C (endpoint: median tumor weight (est.), dose: 4.0 mg/kg/injection, schedule: Q07DX005 (ip), vehicle: Klucel (hydroxypropylcellulose) (HPC)) is reported as 63 % of control.
In the case of `COc1cc2cc(c1Cl)N1CC(O)C(C)(O)C(=O)NC(C)C(=O)OC(CC1=O)C1(C)OC1C(C)C1CC(O)(NC(=O)O1)C(OC)/C=C\C=C(\C)C2OC` (stereo not given), the T/C (endpoint: median tumor weight change, dose: 8.0 micrograms/kg/injection, schedule: Q01DX001 (ip), vehicle: distilled water + alcohol) is reported as 101 % of control, the T/C (endpoint: median tumor weight change, dose: 16.0 micrograms/kg/injection, schedule: Q01DX001 (ip), vehicle: distilled water + alcohol) is reported as 111 % of control and the T/C (endpoint: median tumor weight change, dose: 64.0 micrograms/kg/injection, schedule: Q01DX001 (ip), vehicle: distilled water + alcohol) is reported as 121 % of control.
`CCOc1cc2c(cc1C(C)c1ccc(OC)cc1)OCO2` (stereo not given) was tested, and the T/C (endpoint: median tumor weight change, dose: 62.5 mg/kg/injection, schedule: Q01DX001 (ip), vehicle: distilled water + alcohol) was 102 % of control, the T/C (endpoint: median tumor weight change, dose: 125.0 mg/kg/injection, schedule: Q01DX001 (ip), vehicle: distilled water + alcohol) was 62 % of control and the T/C (endpoint: median tumor weight change, dose: 250.0 mg/kg/injection, schedule: Q01DX001 (ip), vehicle: distilled water + alcohol) was 67 % of control. The T/C (endpoint: median tumor weight change, dose: 500.0 mg/kg/injection, schedule: Q01DX001 (ip), vehicle: distilled water + alcohol) was 91 % of control.
With `CCc1ccc(C2=C(O)C(=O)C(c3ccccc3)=C(O)C2=O)cc1` the T/C (endpoint: median tumor weight change, dose: 31.25 mg/kg/injection, schedule: Q01DX001 (ip), vehicle: Klucel (hydroxypropylcellulose) (HPC)) was 84 % of control, the T/C [4] was 106 % of control and the T/C (endpoint: median tumor weight change, dose: 125.0 mg/kg/injection, schedule: Q01DX001 (ip), vehicle: Klucel (hydroxypropylcellulose) (HPC)) was 59 % of control.
In the case of `Cc1cc(NCCN(C(C)C)C(C)C)nc(/N=C(\N)Nc2ccc(Cl)c(C(F)(F)F)c2)n1`, the T/C (endpoint: median tumor weight change, dose: 12.5 mg/kg/injection, schedule: Q01DX001 (ip), vehicle: Klucel (hydroxypropylcellulose) (HPC)) is reported as 39 % of control and 45 % of control, the T/C (endpoint: median tumor weight change, dose: 50.0 mg/kg/injection, schedule: Q01DX001 (ip), vehicle: Klucel (hydroxypropylcellulose) (HPC)) is reported as 27 % of control and 39 % of control and the T/C (endpoint: median tumor weight change, dose: 100.0 mg/kg/injection, schedule: Q01DX001 (ip), vehicle: Klucel (hydroxypropylcellulose) (HPC)) is reported as 50 % of control and 74 % of control.
In the case of `CC(=O)OC1COC(NC(=O)N(CCCl)N=O)C(OC(C)=O)C1OC(C)=O` (stereo not given), the T/C (endpoint: median tumor weight (est.), dose: 1.5 mg/kg/injection, schedule: Q07DX004 (ip), vehicle: saline with Tween-80) is reported as 32 % of control, the T/C (endpoint: median tumor weight (est.), dose: 3.0 mg/kg/injection, schedule: Q07DX004 (ip), vehicle: saline with Tween-80) is reported as 103 % of control and the T/C (endpoint: median tumor weight (est.), dose: 6.0 mg/kg/injection, schedule: Q07DX004 (ip), vehicle: saline with Tween-80) is reported as 35 % of control. For the same molecule, the T/C (endpoint: median tumor weight (est.), dose: 6.0 mg/kg/injection, schedule: Q07DX005 (ip), vehicle: saline with Tween-80) was 103 % of control, the T/C (endpoint: median tumor weight (est.), dose: 12.0 mg/kg/injection, schedule: Q07DX005 (ip), vehicle: saline with Tween-80) was 68 % of control and the T/C (endpoint: median tumor weight (est.), dose: 24.0 mg/kg/injection, schedule: Q07DX005 (ip), vehicle: saline with Tween-80) was 46 % of control.
For `C1OC1CN1CCN(CC2CO2)CC1` (stereo not given), the T/C (endpoint: median tumor weight (est.), dose: 3.12 mg/kg/injection, schedule: Q07DX005 (ip), vehicle: saline) was 72 % of control and 80 % of control, the T/C [5] was 24 % of control and 38 % of control and the T/C [6] was 24 % of control and 28 % of control. For the same molecule, the T/C [7] was 1 % of control and 4 % of control.
In the case of `c1cc[c]([Sn][c]2ccccc2)cc1`, the T/C (endpoint: median tumor weight (est.), dose: 1.25 mg/kg/injection, schedule: Q07DX005 (ip), vehicle: saline) is reported as 101 % of control, the T/C (endpoint: median tumor weight (est.), dose: 2.5 mg/kg/injection, schedule: Q07DX005 (ip), vehicle: saline) is reported as 91 % of control and the T/C (endpoint: median tumor weight (est.), dose: 5.0 mg/kg/injection, schedule: Q07DX005 (ip), vehicle: saline) is reported as 86 % of control. The T/C (endpoint: median tumor weight (est.), dose: 10.0 mg/kg/injection, schedule: Q07DX005 (ip), vehicle: saline) was 68 % of control and the T/C (endpoint: median tumor weight (est.), dose: 20.0 mg/kg/injection, schedule: Q07DX005 (ip), vehicle: saline) was 50 % of control.
For `CCCCCCC(=O)CC(SCC)c1ccccc1Cl` (stereo not given), the T/C [8] was 108 % of control, the T/C [9] was 72 % of control and the T/C [10] was 77 % of control. The T/C (endpoint: median tumor weight change, dose: 1000.0 mg/kg/injection, schedule: Q01DX001 (ip), vehicle: saline with Tween-80) was 72 % of control and the T/C (endpoint: median tumor weight change, dose: 2000.0 mg/kg/injection, schedule: Q01DX001 (ip), vehicle: saline with Tween-80) was 86 % of control.
For `O=C(Nc1cccc(Cl)c1)ON1C(=O)C2C(C1=O)C1(Cl)C(Cl)C(Cl)C2(Cl)C1(Cl)Cl` (stereo not given), the T/C [11] was 112 % of control, the T/C [8] was 112 % of control and the T/C [9] was 95 % of control.
For `CS(C)=O`, the T/C (endpoint: median tumor weight (est.), dose: 1.5 grams/kg/injection, schedule: Q07DX005 (ip), vehicle: saline) was 106 % of control and 122 % of control.
In the case of `Cc1c2ccccc2c(C)c2c1cc(C(=O)O)c1ccccc12`, the T/C (endpoint: median tumor weight change, dose: 50.0 mg/kg/injection, schedule: Q01DX001 (ip), vehicle: sodium bicarbonate) is reported as 83 % of control, the T/C (endpoint: median tumor weight change, dose: 100.0 mg/kg/injection, schedule: Q01DX001 (ip), vehicle: sodium bicarbonate) is reported as 82 % of control and the T/C (endpoint: median tumor weight change, dose: 200.0 mg/kg/injection, schedule: Q01DX001 (ip), vehicle: sodium bicarbonate) is reported as 155 % of control. For the same molecule, the T/C (endpoint: median tumor weight change, dose: 400.0 mg/kg/injection, schedule: Q01DX001 (ip), vehicle: sodium bicarbonate) was 153 % of control.
`CC(=O)OCC(=O)[C@@]12OC(C)(C)O[C@@H]1C[C@H]1[C@@H]3CC(C=O)=C4C=C(OCCCl)CC[C@]4(C)[C@@]3(F)[C@@H](O)C[C@@]12C` was tested, and the T/C [1] was 41 % of control and 62 % of control, the T/C [2] was 1 % of control and 16 % of control and the T/C [3] was 1 % of control and 7 % of control. For the same molecule, the T/C (endpoint: median tumor weight change, dose: 62.0 mg/kg/injection, schedule: Q01DX001 (ip), vehicle: Klucel (hydroxypropylcellulose) (HPC)) was 32 % of control and the T/C [4] was 66 % of control.
In the case of `CN=S(=O)(OCCCCCOS(=O)(=NC)c1ccccc1)c1ccccc1` (stereo not given), the T/C (endpoint: median tumor weight change, dose: 62.0 mg/kg/injection, schedule: Q01DX001 (ip), vehicle: saline with Tween-80) is reported as 121 % of control, the T/C [11] is reported as 59 % of control and the T/C [9] is reported as 63 % of control and 83 % of control. For the same molecule, the T/C [10] was 20 % of control.
For `CC1(C)OC(=O)N(CO)C1=O`, the T/C [5] was 52 % of control, the T/C [6] was 73 % of control and the T/C [7] was 9 % of control. For the same molecule, the T/C (endpoint: median tumor weight (est.), dose: 100.0 mg/kg/injection, schedule: Q07DX005 (ip), vehicle: saline) was 110 % of control and the T/C (endpoint: median tumor weight (est.), dose: 200.0 mg/kg/injection, schedule: Q07DX005 (ip), vehicle: saline) was 104 % of control.
`CC(=O)C1=C(O)C2(O)C(=O)c3c(c(C)c4ccc(C)c(O)c4c3O)CC2C(N)C1=O` (stereo not given) was tested, and the T/C (endpoint: median tumor weight change, dose: 37.5 mg/kg/injection, schedule: Q01DX001 (ip), vehicle: saline + alcohol) was 72 % of control, the T/C (endpoint: median tumor weight change, dose: 38.0 mg/kg/injection, schedule: Q01DX001 (ip), vehicle: saline + alcohol) was 100 % of control and the T/C (endpoint: median tumor weight change, dose: 75.0 mg/kg/injection, schedule: Q01DX001 (ip), vehicle: saline + alcohol) was 46 % of control and 60 % of control. The T/C (endpoint: median tumor weight change, dose: 150.0 mg/kg/injection, schedule: Q01DX001 (ip), vehicle: saline + alcohol) was 49 % of control.
